Assay results from patent US20200206108A1, “Oral Care Compositions and Methods of Use” (Colgate-Palmolive Company, priority 2018, published 2020).

Test: Zeta potential of zinc oxide in the presence of amino acids
Assay type: physicochemical
Conditions: aqueous zinc oxide suspension 12 mM, alone (pH 8) or with the named amino acid (1.7 mmol) added
Experimental: The effect on zinc oxide particle charge upon exposure to amino acids was screened using zeta potential. Specific amino acids were selected based on side chain functionality: L-serine (polar, neutral), L-arginine (polar, cationic), and L-glutamic acid (polar, anionic). For zeta potential measurements, select amino acids (1.7 mmol) were added to aqueous suspensions of zinc oxide (12 mM). This concentration of zinc oxide was studied so as to minimize aggregation during zeta potential measurements. Each amino acid-zinc oxide solution was vortexed, sonicated, and then loaded into a Zetasizer DTS 1061 capillary cuvette. The cuvette was placed in the Zetasizer instrument and 12 zeta runs were performed. An average zeta potential value was calculated from the results.

N[C@@H](CO)C(=O)O [L-serine]
zeta potential (charge of zinc oxide): did not alter the charge

N=C(N)NCCC[C@H](N)C(=O)O [L-arginine]
zeta potential (charge of zinc oxide): +36 mV

N[C@@H](CCC(=O)O)C(=O)O [L-glutamic acid]
zeta potential (charge of zinc oxide): −28 mV

[O]=[Zn] [Zinc oxide, zinc oxide]
zeta potential (charge of zinc oxide): +16 mV
